Reference: US11517556B2, “Composition for BKCa channel activation” (GWANGJU INSTITUTE OF SCIENCE AND TECHNOLOGY, priority 2016, dated 2022)

Biological target: T1, mutant BKCa channel (G803D/N806K) (Rattus norvegicus, UniProt Q62976, G803D/N806K)
T1 construct: expressed in transfected cells
Assay: Cell-based TI+ fluorescence (FluxOR) assay in AD-293 cells
Conditions: for TI+-fluorescence enhancement (initial RFU increase): 10 μM, n=4
Method: AD-293 cells (Lee et al., 2013), as a modified HEK293 cell for expressing a mutant BKCa channel, were placed in DMEM (Dulbecco's Modified Eagle's medium) supplemented with 10% fetal bovine serum and 1 mg/ml geneticin (Gibco) as an antibiotic. The cells were cultured under a humidified condition of 5% CO2 and 37° C.
AD-293 cells stably expressing the mutant BKCa channel (G803D/N806K) were used for cell-based assays (Lee et al., 2013). Approximately 20,000 cells/well were inoculated on a black-wall assay plate (Corning Incorporated) coated with poly-D-lysine (Sigma-Aldrich), which is 96-well clear-bottom. A FluxOR™ […] (Invitrogen) was used for initial screening of compound libraries, and for further assay of candidate compounds. Experiments were performed according to the manufacturer's following guidelines: growth medium was replaced with 80 μl/well of loading buffer containing FluxOR™ fluorescent dye, and incubation was carried out for 1 hour under a light-free condition. After the incubation, the loading buffer was replaced with 100 μl/well of assay buffer containing various concentrations of compounds of interest, followed by incubation for 20 minutes to 30 minutes. DMSO (1%) was vehicle and the vehicle was used for all test compounds. CTBIC (Cormemis et al. 2005; Lee et al. 2012), previously identified as an activator of the BKCa channel, was used as a positive control. For fluorescence measurements, synergy TM H1 hybrid multi-mode microplate reader (BioTek Instrument Inc., Winnoski, Vt.) and Cen5 software was used in initial screening. For additional assays, Flexstation 3 multi-mode microplate reader (Molecular Devices) and SoftMax®Pro software were used, respectively. A fluorescence signal was obtained at an excitation wavelength of 485 nm and an emission wavelength of 528 nm. Membrane polarization was induced by a stimulus buffer containing thallium ion. The fluorescence signal was measured under two conditions: every 10 seconds for 2 minutes before treating the stimulation buffer and then every 10 seconds for 3 minutes after addition of stimulation buffer for synergy H1, and every 2 seconds for 20 seconds before stimulus buffer treatment, and then every 2 seconds for 160 seconds after adding the stimulus buffer for FlexStation 3.
A fluorescence signal change was measured based on a relative fluorescence unit (RFU) or F/F0 where F0 is ta minimum fluorescence value of each fluorescence trace. To quantitatively compare activation effects of kurarinone and its derivatives, an initial fluorescence increase was calculated using first three points after treatment with the stimulation buffer, and a linear slope was predicted using OriginPro 9.1 (OriginLab Corp., Northampton, Mass.).

T1 sequence (Q62976 whole entry G803D/N806K): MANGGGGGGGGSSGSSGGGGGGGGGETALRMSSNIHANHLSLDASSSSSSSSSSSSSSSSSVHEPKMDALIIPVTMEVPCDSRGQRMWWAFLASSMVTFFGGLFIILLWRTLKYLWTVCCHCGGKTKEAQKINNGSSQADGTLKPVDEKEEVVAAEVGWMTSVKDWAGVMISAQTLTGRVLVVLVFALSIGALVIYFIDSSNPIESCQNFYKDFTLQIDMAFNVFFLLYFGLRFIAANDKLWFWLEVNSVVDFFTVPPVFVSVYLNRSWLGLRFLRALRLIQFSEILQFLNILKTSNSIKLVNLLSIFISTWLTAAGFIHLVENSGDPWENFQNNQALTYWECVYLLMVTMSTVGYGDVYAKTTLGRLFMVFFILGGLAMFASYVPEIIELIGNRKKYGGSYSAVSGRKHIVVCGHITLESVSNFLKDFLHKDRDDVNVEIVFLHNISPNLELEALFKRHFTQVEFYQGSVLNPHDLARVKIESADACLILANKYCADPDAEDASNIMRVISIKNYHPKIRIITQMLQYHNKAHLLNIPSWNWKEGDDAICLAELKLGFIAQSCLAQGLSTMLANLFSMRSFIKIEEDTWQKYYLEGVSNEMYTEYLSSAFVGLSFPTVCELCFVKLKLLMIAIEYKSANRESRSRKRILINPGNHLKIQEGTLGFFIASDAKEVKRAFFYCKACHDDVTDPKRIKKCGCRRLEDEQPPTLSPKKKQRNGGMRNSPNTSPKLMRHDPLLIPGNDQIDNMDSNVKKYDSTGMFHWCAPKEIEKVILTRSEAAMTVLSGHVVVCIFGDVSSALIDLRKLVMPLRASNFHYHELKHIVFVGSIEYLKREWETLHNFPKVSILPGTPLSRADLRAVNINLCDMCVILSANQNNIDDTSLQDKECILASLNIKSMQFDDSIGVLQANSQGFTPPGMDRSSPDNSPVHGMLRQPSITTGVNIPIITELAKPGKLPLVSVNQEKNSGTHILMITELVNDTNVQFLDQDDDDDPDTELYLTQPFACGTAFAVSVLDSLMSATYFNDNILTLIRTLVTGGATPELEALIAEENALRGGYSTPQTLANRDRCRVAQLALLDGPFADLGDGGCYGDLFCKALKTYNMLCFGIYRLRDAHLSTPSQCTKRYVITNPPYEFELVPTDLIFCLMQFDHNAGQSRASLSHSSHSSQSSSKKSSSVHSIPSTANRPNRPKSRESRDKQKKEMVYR

SMILES | TI+-fluorescence enhancement (initial RFU increase) | block of kurarinone-induced fluorescence enhancement (co-treatment of 1 μM blocker with kurarinone (5 μM))
CC(C)=CCc1c(O)cc(O)c2c1O[C@H](c1ccc(O)cc1O)CC2=O [leachianone G] | strong fluorescence increase | –
C=C(C)[C@H](CCC(C)(C)O)Cc1c(O)cc(OC)c2c1O[C@H](c1ccc(O)cc1O)CC2=O [kurarinol, reference compound] | weaker fluorescence effects | –
CC(C)(O)[C@H]1O[C@H]2CC[C@@]3(C)[C@@](O)(CC[C@H]4Cc5c([nH]c6ccccc56)[C@@]43C)C2=CC1=O [pacilin, reference compound] | – | completely blocked
O=C1C[C@@H](c2ccc(O)cc2)Oc2cc(O)cc(O)c21 [naringenin] | strong fluorescence increase | –
